According to PMC3086806, “Mining a Cathepsin Inhibitor Library for New Antiparasitic Drug Leads” (PLoS Neglected Tropical Diseases, 2011):
Like-named read-outs stand apart in the source and are kept apart here.

Assays:
[1] = Jurkat cell cytotoxicity assay; type: cell-based; details: human, Jurkat cells (clone E6-1), read-out: Cytotoxicity (% inhibition at 10 µM) Jurkat cells
Experimental: (§1) Jurkat cells (clone E6-1) were grown in complete RPMI-1640 medium containing 10% FBS, 50 U/mL penicillin and 50 µg/mL streptomycin (Invitrogen) at 37°C under a humidified atmosphere and 5% CO2. For cytotoxicity testing, cells were diluted to 1×10^5 per ml in complete RPMI-1640 medium. Test compound stocks were prepared in 100% DMSO and screened at 10 µM against cells (1×10^4 cells per well) in sterile Greiner 96-well flat white opaque culture plates (0.5% final DMSO concentration). The 0% inhibition control wells contained 0.5% DMSO while 100% inhibition control wells contained 40 µM staurosporine. After compound addition, plates were incubated for 40 hr at 37°C. At the end of the incubation period, 50 µL of CellTiter-Glo™ reagent (Promega Inc., Madison, WI, USA) was added to each well and plates were placed on an orbital shaker at room temperature for 2 min to induce lysis. After a further 10 min incubation without shaking to stabilize the signal, the ATP-bioluminescence of each well was determined using an Analyst HT plate reader (Molecular Devices, Sunnyvale, CA, USA). Calculations of percentage inhibition and IC50 were performed similar to those in the T. brucei brucei assay.

human cathepsin L = target: human cathepsin L; set-up: method as in data provided by Celera Genomics; details: historical data; ref data provided by Celera Genomics; read-out: Ki catL; cited from earlier work
cruzain = target: T1, cruzain (Trypanosoma cruzi, UniProt P25779); test: Cruzain protease inhibition assay (Z-Phe-Arg-AMC); type: biochemical
T1 construct: made in house
Experimental: (§2) Recombinant cruzain, rhodesain, TbCatB, falcipain-2 and falcipain-3 were expressed as described previously, [39], [40], [41], [42]. Inhibitor stock solutions were prepared in DMSO and screened at 0.1 µM for cruzain and rhodesain, 1 µM for TbCatB and 50 nM for falcipain-3 (0.5% DMSO in assay). […] Protease inhibition assays for cruzain and rhodesain were carried out in 96 well plate format as described previously. Cruzain (4 nM), rhodesain (4 nM) or TbCatB (258 nM) was incubated with test compound in 100 mM sodium acetate, pH 5.5, containing 5 mM DTT and 0.01% Triton X-100 (buffer A), for 5 min at room temperature (the higher concentration of TbCatB was required due to its lower intrinsic activity against the fluorogenic substrate). Then buffer A containing Z-Phe-Arg-AMC (Bachem) was added to enzyme-compound mixture to give 10 µM substrate in a final assay volume of 200 µL. The rate of free AMC release was measured at excitation and emission wavelengths of 355 and 460 nm, respectively, with a microtiter plate spectrofluorimeter (SpectraMax M5, Molecular Devices) for 3 min. Percentage inhibition of test compound was calculated relative to the DMSO control (0% inhibition control). IC50 values were determined with Prism 4 software (GraphPad, San Diego, CA) using sigmoidal dose-response variable slope model.

[2] = tested on: T. brucei brucei clone 427-221a bloodstream forms; test: T. brucei brucei growth inhibition assay; type: cell-based; details: Trypanosoma brucei; 40 hours
Experimental: The growth inhibition assay for T. brucei brucei was conducted as described previously. Bloodstream forms of the monomorphic T. brucei brucei clone 427-221a were grown in complete HMI-9 medium containing 10% FBS, 10% Serum Plus medium (Sigma Inc. St. Louis Mo. USA), 50 U/mL penicillin and 50 µg/mL streptomycin (Invitrogen) at 37°C under a humidified atmosphere and 5% CO2. […] 5 µL of each dilution was added to 95 µL of diluted parasites (1×10^4 cells per well) in sterile Greiner 96-well flat white opaque culture plates such that the final DMSO concentration was 0.5%. The 0% inhibition control wells contained 0.5% DMSO while 100% inhibition control wells contained 50 µM thimerosal (Sigma). After compound addition, plates were incubated for 40 hours at 37°C. At the end of the incubation period, 50 µL of CellTiter-Glo™ reagent (Promega Inc., Madison, WI, USA) was added to each well and plates were placed on an orbital shaker at room temperature for 2 min to induce lysis. After an additional 10 min incubation without shaking to stabilize the signal, the ATP-bioluminescence of each well was determined using an Analyst HT plate reader (Molecular Devices, Sunnyvale, CA, USA). Raw values were converted to log10 and percentage inhibition calculated relative to the controls. IC50 curve fittings were performed with Prism 4 software as above.

[3] = tested on: intracellular T. cruzi (CA-I/72) in BESM cells; test: T. cruzi amastigote growth inhibition assay; type: cell-based; details: Trypanosoma cruzi; infected BESM cells, 72 hours
Experimental: (§3) The growth inhibition assay for the intracellular T. cruzi was conducted in 96-well plate format as described previously. Briefly, bovine embryo skeletal muscle (BESM) cells (2×10^3/well), seeded overnight, were infected with CA-I/72 T. cruzi trypomastigotes (2×10^3/well). Sixteen hours post-infection, test compounds (serial dilution concentrations starting from 20 µM) were added and assay plates were incubated for an additional 72 hours at 37°C with 5% CO2. Cells were then washed once in PBS, fixed with 4% paraformaldehyde and stained with DNA fluorescent dye DAPI (4′ 6-diamidino-2-phenylindole). The assay plates were then imaged in the IN Cell Analyzer 2000 (GE Healthcare) with the excitation and emission filters set of 350 nm and 460 nm, respectively, to detect DAPI signals. The feature extraction module in IN Cell Developer Toolbox 1.7 software was used to count host nuclei and parasite kinetoplasts by size difference.

human cathepsin B = target: human cathepsin B; set-up: method as in data provided by Celera Genomics; details: historical data; ref data provided by Celera Genomics; read-out: Ki catB; cited from earlier work
rhodesain = target: T2, rhodesain (Trypanosoma brucei rhodesiense, UniProt Q95PM0); test: Rhodesain protease inhibition assay (Z-Phe-Arg-AMC); type: biochemical
T2 construct: made in house
Experimental: as §2

TbCatB = target: T3, TbCatB (Trypanosoma brucei, UniProt Q6R7Z5); test: TbCatB protease inhibition assay (Z-Phe-Arg-AMC); type: biochemical
T3 construct: made in house
T3 sequence (Q6R7Z5 23-340): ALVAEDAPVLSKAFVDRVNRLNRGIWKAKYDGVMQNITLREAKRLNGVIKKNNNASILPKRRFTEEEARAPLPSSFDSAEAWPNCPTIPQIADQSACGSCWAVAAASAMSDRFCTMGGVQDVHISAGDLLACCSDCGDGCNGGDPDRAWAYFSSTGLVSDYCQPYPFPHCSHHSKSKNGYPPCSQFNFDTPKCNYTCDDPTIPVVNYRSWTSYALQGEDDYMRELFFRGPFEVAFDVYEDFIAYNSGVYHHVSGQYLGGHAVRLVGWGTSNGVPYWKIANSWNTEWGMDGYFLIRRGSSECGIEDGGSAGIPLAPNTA
Experimental: as §2

falcipain-3 = target: T4, falcipain-3 (Plasmodium falciparum, UniProt Q8IIL0); test: Falcipain-3 protease inhibition assay (Z-Leu-Arg-AMC); type: biochemical
T4 construct: made in house
T4 sequence (Q8IIL0 243-492): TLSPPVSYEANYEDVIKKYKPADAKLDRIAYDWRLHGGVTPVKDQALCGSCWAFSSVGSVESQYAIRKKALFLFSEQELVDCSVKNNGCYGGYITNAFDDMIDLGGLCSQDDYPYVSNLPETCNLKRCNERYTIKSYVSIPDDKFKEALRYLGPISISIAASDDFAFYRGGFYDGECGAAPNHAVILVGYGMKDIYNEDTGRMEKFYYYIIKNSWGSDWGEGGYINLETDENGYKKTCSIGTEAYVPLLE
Experimental: as §2
(§4) Protease inhibition assays for falcipain-2 and falcipain-3 were carried out in 96 well plate format as described previously, [43] with modification for end-point readout. Falcipain-2 (21 nM) or falcipain-3 (78 nM) was incubated with test compound for 10 min at room temperature in 200 mM sodium acetate, pH 6, 10 mM DTT and 3.6% glycerol and 0.01% Triton X-100 (buffer B). Then buffer B containing Z-Leu-Arg-AMC (Bachem) was added to the enzyme-compound mixture to give 25 µM substrate in a final assay volume of 200 µL. After 15 min, 50 µL of 5 M acetic acid was added to each well to stop the reaction. End-point fluorescence was read in a spectrofluorimeter as above. The 0% inhibition control wells contained DMSO while 100% inhibition control wells contained 50 µM E-64 (Sigma). Percentage inhibition of test compound was calculated relative to the controls and IC50 curve fitting was performed with Prism 4 software as above.

[4] = tested on: W2-strain P. falciparum parasites; test: P. falciparum growth inhibition assay; type: cell-based, Plasmodium falciparum; details: for GI50: Plasmodium falciparum, read-out: GI50 P. falc. W2
Experimental: The growth inhibition assay for P. falciparum was conducted as described previously. W2-strain P. falciparum parasites (1% parasitemia, 2% hematocrit) were cultured at 37°C in human red blood cells under the atmosphere of 3% O2, 5% CO2 balance N2 in 0.2 mL of per well in medium RPMI-1640 supplemented with 10% human serum in duplicate 96-well flat bottom culture plates in the presence of inhibitors. Tested compounds were serially diluted 1∶3 in the range 10,000 – 4.6 nM, with maximum DMSO concentration of 0.1%. Following 48 hours of incubation, the medium was removed and the cells were fixed in 2% formaldehyde in PBS. Parasite growth was evaluated by flow cytometry on a FACsort (Becton Dickinson) equipped with AMS-1 loader (Cytek Development) after staining with 1 nM DNA dye YOYO-1(Molecular Probes) in 100 mM NH4Cl, 0.8% NaCl. Parasitemias were determined from dot plots (forward scatter vs. fluorescence) using […] software (Becton Dickinson). IC50 values for growth inhibition were determined from plots of percentage control parasitemia over inhibitor concentration using GraphPad Prism software.

falcipain-2 = target: T5, falcipain-2 (Plasmodium falciparum, UniProt Q8I6U4); test: Falcipain-2 protease inhibition assay (Z-Leu-Arg-AMC); type: biochemical
T5 construct: made in house
T5 sequence (Q8I6U4 244-484): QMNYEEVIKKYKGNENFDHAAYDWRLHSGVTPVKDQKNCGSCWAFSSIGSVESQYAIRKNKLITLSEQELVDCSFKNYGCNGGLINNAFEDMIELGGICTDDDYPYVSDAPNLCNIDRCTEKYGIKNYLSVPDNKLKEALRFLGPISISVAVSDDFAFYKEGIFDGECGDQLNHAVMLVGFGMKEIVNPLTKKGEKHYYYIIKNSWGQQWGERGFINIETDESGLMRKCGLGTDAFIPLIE
Experimental: as §2, §4

[5] = tested on: Jurkat cells (clone E6-1); test: Jurkat cell cytotoxicity assay; type: cell-based; details: 40 hr
Experimental: as §1

[6] = tested on: bovine embryo skeletal muscle (BESM) cells; test: Toxicity toward host BESM cells in the T. cruzi assay; type: cell-based; details: 20 µM
Experimental: as §3
All falcipain-3 inhibitors were also tested against falcipain-2. […] The entire library was examined for cytotoxicity to a mammalian cell line (Jurkat) at a concentration of 10 µM, and those compounds studied in the T. cruzi assay were also evaluated for toxicity (at 20 µM) toward the host BESM cells used in that assay. […]

T1 sequence (P25779 123-467): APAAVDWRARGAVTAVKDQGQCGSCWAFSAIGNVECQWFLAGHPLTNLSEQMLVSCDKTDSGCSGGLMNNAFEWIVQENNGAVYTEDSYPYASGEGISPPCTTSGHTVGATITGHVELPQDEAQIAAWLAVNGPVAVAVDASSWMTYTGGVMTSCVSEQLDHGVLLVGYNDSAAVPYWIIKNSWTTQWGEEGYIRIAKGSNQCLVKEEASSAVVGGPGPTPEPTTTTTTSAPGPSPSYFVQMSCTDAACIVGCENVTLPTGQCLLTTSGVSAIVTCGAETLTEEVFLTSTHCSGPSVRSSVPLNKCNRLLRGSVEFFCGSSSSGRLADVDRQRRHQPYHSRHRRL
T2 sequence (Q95PM0 entry or part of it): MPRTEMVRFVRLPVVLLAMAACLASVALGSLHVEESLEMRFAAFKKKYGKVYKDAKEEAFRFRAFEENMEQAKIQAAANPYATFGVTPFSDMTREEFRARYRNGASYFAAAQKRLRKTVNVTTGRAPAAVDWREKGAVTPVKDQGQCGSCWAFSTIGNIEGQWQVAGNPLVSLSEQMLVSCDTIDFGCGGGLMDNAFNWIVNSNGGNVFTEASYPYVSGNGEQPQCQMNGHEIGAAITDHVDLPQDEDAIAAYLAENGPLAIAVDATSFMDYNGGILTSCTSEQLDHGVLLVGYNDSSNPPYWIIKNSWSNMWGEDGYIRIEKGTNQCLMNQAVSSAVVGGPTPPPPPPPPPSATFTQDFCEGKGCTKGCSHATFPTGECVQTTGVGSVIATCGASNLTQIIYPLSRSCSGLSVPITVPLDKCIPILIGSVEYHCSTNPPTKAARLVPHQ

IC50 (falcipain-3; read-out: IC50 falcipain-3) [nM] | IC50 (falcipain-2) [nM] | SMILES | cytotoxicity at 40 h, 10 µM [1] [%] | Ki (human cathepsin L) [nM] | IC50 (cruzain) [nM] | GI50 [2] [nM] | GI50 [3] [nM] | Ki (human cathepsin B) [nM] | IC50 (rhodesain) [nM] | IC50 (TbCatB) [nM] | GI50 ([4]; cultured W2 strain, 48 hours) [nM] | IC50 (falcipain-3) [nM] | GI50 ([4]; W2, 48 h) [nM] | GI50 P. falc. W2 ([4]; cultured W2 strain, 48 hours) | Cytotoxicity (% inhibition at 10 µM) Jurkat cells [5] | Inhibition of growth of BESM cells [6] [%]
 |  | CCC[C@H](NC(=O)C1(NC(=O)c2ccc(-c3csc(N4CCN(C)CC4)n3)cc2)CCCCC1)C(=O)c1nc2ccccc2o1 [Compound 23a] | < 5 | 1100 | 30 | 4200 | 19000 | 320 | 3900 | 70 |  |  |  |  |  | 
17 | 66 | CCCCC(NC(=O)C(CC(C)C)NC(C)=O)C(=O)c1nc2ccccc2o1 (stereo not drawn) [Compound 19c] | < 5 | 610 |  |  |  | 920 |  |  | 4800 |  |  |  |  | 
2.4 | 2 | CC(C)CC(NC(c1ccc(-c2ccc(S(C)(=O)=O)cc2)cc1)c1nccs1)C(=O)NC1(C#N)CC1 (stereo not drawn) [Compound 21] | < 5 | 32 |  |  |  | 6700 |  |  | 870 |  |  | sub-micromolar |  | 
 |  | CC(C)CC(NC(=O)c1ccc(-c2csc(Nc3ccncc3)n2)cc1)C(=O)NCCN(CC(C)C)CC(C)C (stereo not drawn) [Compound 22] | < 5 | 71 | 1600 | 200 | 800 | 4500 | 640 |  |  |  |  |  | did not inhibit the growth | ~90
40 | 7.6 | CC(C)CC(NC(=O)N1CCOCC1)C(=O)NC(C=CS(=O)(=O)c1ccccc1)CCc1ccc(O)cc1 (stereo not drawn) [Compound 18a] | < 5 | 3 |  |  |  | 440 |  |  | 20 |  |  |  |  | 
 |  | CCCC[C@H](NC(=O)C1(NC(=O)c2ccc(-c3csc(N4CCN(C)CC4)n3)cc2)CCCCC1)C(=O)c1nc2ccccc2o1 [Compound 23b] | < 5 | 280 | 380 | 10500 | 7700 | 610 | 5000 | 1 |  |  |  |  |  | 
11 | 7.5 | N#CC1(NC(=O)C(CC2CCCCC2)NC(=O)c2cccc(-c3cccc(S(N)(=O)=O)c3)c2)CCS(=O)(=O)CC1 (stereo not drawn) [Compound 20] | < 5 |  |  |  |  |  |  |  | 170 |  |  | sub-micromolar |  | 

SMILES | IC50 (falcipain-3; read-out: IC50 falcipain-3) [nM] | IC50 (falcipain-2) [nM] | cytotoxicity at 40 h, 10 µM [1] [%] | Ki (human cathepsin L) [nM] | IC50 (cruzain) [nM] | GI50 [2] [nM] | GI50 [3] [nM] | Ki (human cathepsin B) [nM] | IC50 (rhodesain) [nM] | IC50 (TbCatB) [nM] | GI50 ([4]; cultured W2 strain, 48 hours) [nM] | IC50 (falcipain-3) [nM] | GI50 ([4]; W2, 48 h) [nM] | GI50 P. falc. W2 ([4]; cultured W2 strain, 48 hours) | Cytotoxicity (% inhibition at 10 µM) Jurkat cells [5] | Inhibition of growth of BESM cells [6] [%]
CC(C)CC(NC(=O)N1CCOCC1)C(=O)NC(C=CS(=O)(=O)c1ccccc1)CCc1ccccc1 (stereo not drawn) [Compound 18b] |  | 3.6 | < 5 |  |  |  |  | 210 |  |  |  | 29 | 40 |  |  | 
